Test results from PMC8945686, “Anticancer Effects with Molecular Docking Confirmation of Newly Synthesized Isatin Sulfonamide Molecular Hybrid Derivatives against Hepatic Cancer Cell Lines” (Biomedicines, 2022).
“And” between values parts separate entries of the source, which are not always exact repeats. Equal entries are not always repeated. Marks after values point to notes of the source that are not given here.

What was measured:
EGFR = EGFR level in HepG2 cell lysate (ELISA); assay type: cell-based, human; conditions: HepG2 treated at IC50, 48 h
Experimental: (§1) As previously described, with little modification, HepG2 cells were cultured in T25 flask until they reached 30% confluency. […] After treatment, cells were washed by PBS, trypsinized and centrifuged at 10,000 rpm. The formed pellets were washed twice with PBS and lysed in 1 mL ice-cold radio immunoprecipitation assay (RIPA) lysis buffer (50 mM Tris-HCl, pH 8.0, 150 mM NaCl, 1% Triton X-100, 0.5% sodium deoxycholate, 0.1% sodium dodecyl sulfate) and kept on ice for 20 min. Then, the mixture was centrifuged at 15,000 rpm for 15 min to remove any cell debris. The cell lysate was aliquoted and stored at −80 °C for determination of protein using Pierce BCA Protein Assay Kit (Thermo Fisher Scientific, Waltham/Boston, USA) according to manufacturer’s recommendations and determination of other biochemical parameters including EGFR, urokinase Plasminogen Activator (uPA), B-Cell Lymphoma-2 (Bcl-2), heparanase, and oxidative stress markers (glutathione; GSH and malonaldehyde; MDA).
(§2) Levels of EGFR [37] and heparanase in cell lysate were investigated using commercially available enzyme-linked immunosorbent assay (ELISA) kits supplied by Abcam (Cat. No. ab269558, ab256401, respectively). Levels of uPA [39] were measured using ELISA kit supplied by Creative Diagnostics (New York, USA, Cat. No. DEIA1630). Bcl-2 levels were determined using ELISA kit supplied by Zymed Laboratories, Carlsbad, California (Cat. No. 99-0042). Briefly, standards and samples were added to corresponding 96-well plate coated with suitable antibody. After the washing step, biotinylated anti-human antibody was added to each well. After washing away unbound biotinylated antibody, horseradish peroxidase (HRP)-conjugated streptavidin was pipetted into each well. A peroxidase substrate solution was added to all wells, after washing, and the color developed was proportionate to the amount of EGFR bound. Finally, the stop solution was added and the color intensity was measured at 450 nm.

glutathione (GSH) = experiment: GSH level in HepG2 cell lysate (DTNB method); assay type: cell-based, human; conditions: HepG2 treated at IC50, 48 h
Experimental: as §1
Glutathione levels were determined using GSH Biodiagnostics kit (Cairo, Egypt). The method is based on the reduction of 5,5′dithiobis (2-nitrobenzoic acid) (DTNB) with glutathione (GSH) to produce a yellow compound. The reduced chromogen is directly proportional to GSH concentration and its absorbance was measured at 405 nm.

[1] = tested on: urokinase Plasminogen Activator (uPA); experiment: uPA level in HepG2 cell lysate (ELISA); assay type: cell-based, human; conditions: HepG2 treated at IC50, 48 h
Experimental: as §1, §2

Huh7 cells = experiment: MTT cytotoxicity assay on Huh7 cells; assay type: cell-based, human; conditions: for % Death Rate at 100 p.p.m (μg/mL) Huh7: 48 h; for IC50: Homo sapiens, Huh-7, 48 h
Experimental: MTT-based cell viability assay was carried out to evaluate the antiproliferation potential of the target compounds on HCC cell lines (HepG2 and Huh7). The half maximal inhibitory concentration (IC50) values were calculated against DMSO non-treated HepG2 cells (negative control) and Dox-treated HepG2 cells (positive control). The assay was conducted using 3-(4, 5-di-MethylThiazol-2-yl)-2,5-diphenyl Tetrazolium bromide (MTT) to test cell viability, according to the method described by Mosmann with minor changes. The yellow MTT is reduced in the viable cells to purple formazan. The insoluble formazan is solubilized by DMSO to colored solution measured spectrophotometrically. Briefly, cells were seeded in a 96-well plate at density of 1 × 10^4 cells/well for 24 h in 5% CO2 incubator at 37 °C to allow their adherence. […] After incubation, 20 μL of a 5 mg/mL MTT solution were mixed with the contents of each well, and the plate was incubated for another 4 h. Then, the medium was suctioned, and the wells were washed with PBS. After 2 h of drying, 200 μL of DMSO was added to each well. The plate was set on a shaker to dissolve the formazan crystals. Then, the absorbance was measured spectrophotometrically at 570 nm with a reference wavelength of 630 nm using ELX800 UV universal microplate reader (BioTek Instruments Inc., VT, Santa Clara, CA, USA).
All experiment conditions were tested in three replicates. The % cell viability was calculated from the following equation: (mean absorbance of treated sample/mean absorbance of negative control sample) × 100. The % death rate = 100 -% cell viability, and the inhibitory concentration of 50% (IC50) was measured from the exponential curve of viability against concentration (dose–response curve).

mice = experiment: In vivo acute (14-day) oral toxicity study; conditions: for S.ALT / S.AST / S.Creatinine / S.D.Bilirubin / S.T.Bilirubin / S.Urea: 14 days after single dose, doxorubicin 15 mg/kg I.P; for S.ALT / S.AST / S.Creatinine / S.D.Bilirubin / S.T.Bilirubin / S.Urea / Histopathology of liver and kidney tissues (H and E) versus control groups / Kidney histology (H and E photomicrographs) / Liver histology (H and E photomicrographs): compounds 250 mg/kg oral; for Histopathology of liver and kidney tissues (H and E) versus control groups / Kidney histology (H and E photomicrographs) / Liver histology (H and E photomicrographs) / Physical or abnormal changes (body weight, skin, fur, eyes, behavior, overall appearance): 14 days; for Histopathology of liver and kidney tissues (H and E) versus control groups / Kidney histology (H and E photomicrographs) / Liver histology (H and E photomicrographs): Dox 15 mg/kg i.p.; for Survival over the treatment period (14 days) / Physical or abnormal changes (body weight, skin, fur, eyes, behavior, overall appearance): single acute oral dose of 250 mg/kg
Description: GPower 3.0.10 software was used to estimate the sample size needed for the experiment and the number of mice per group but, according to the Organization for Economic Cooperation and Development (OECD) Test Guidelines No. 407 (OECD, 2008 and updated 2017) and under the International Academy of Science’s Guide for the Care and Use of Laboratory Animals, as well as the ARRIVE guidelines, to use the least number of mice per group for the acute single dose oral toxicity test.
Animals were divided randomly into nine groups (5 animals per group). Before the experiment, the body weight (BW) of all mice was recorded. All mice were made to fast for 24 h and treated once (day zero) then carefully monitored for 14 days.
Normal control group: mice received saline orally once;
Negative control group: mice received vehicle (DMSO) orally once;
Positive control group: mice were injected with Dox (15 mg/kg BW, i.p.) once.
Isatin-sulfonamide-derivative-compound-treated groups (2a, 3a, 3d and 4b, 4c and 4d) of mice received 250 mg/kg BW of each orally once.
The animals’ BWs were recorded at the end of the 14 days of observation. Blood samples were collected from the retro-orbital plexus and allowed to clot. Sera were prepared by centrifugation at 4000 rpm for 15 min and then kept frozen at − 80 °C for liver and kidney function tests (LFTs and KFTs). Thereafter, mice were deprived of food overnight, euthanized, and sacrificed by cervical dislocation. Liver and kidney tissues were collected, washed with ice-cold saline, and weighed. Excised weighed livers and kidneys were fixed in a suitable buffer for histological examination.
Liver and kidney tissues were fixed in 10% neutral buffered formaldehyde overnight and then embedded in paraffin, […] in serial grades of alcohols, cleared in xylene, and were subjected to […], where 4 μm thick tissue sections were cut by rotatory microtome. Tissue sections were stained with hematoxylin and eosin (H and E) for histological examination using full HD light microscopic imaging system (Leica Microsystems GmbH, Wetzlar, Germany). Standard procedures for sample fixation and staining were done as previously described.

Row | SMILES | EGFR level in cell lysate (EGFR) | GSH level in cell lysate (glutathione (GSH)) | uPA level in cell lysate [1] | % Death Rate at 100 p.p.m (μg/mL) Huh7 (Huh7 cells) | IC50 (Huh7 cells) | S.ALT (mice) | S.AST (mice) | S.Creatinine (mice) | S.D.Bilirubin (mice) | S.T.Bilirubin (mice) | S.Urea (mice) | Histopathology of liver and kidney tissues (H and E) versus control groups (mice) | Kidney histology (H and E photomicrographs) (mice) | Liver histology (H and E photomicrographs) (mice) | Survival over the treatment period (14 days) (mice) | Physical or abnormal changes (body weight, skin, fur, eyes, behavior, overall appearance) (mice) | uPA level in cell lysate ([1]; listed as Dox) | uPA level in cell lysate ([1]; listed as Positive)
1 | Cc1ccc(C(=O)CC2(O)C(=O)Nc3ccc(S(=O)(=O)N4CCCCC4)cc32)cc1 (stereo not drawn) [Compound 3a, 3-hydroxy-3-(2-oxo-2-(p-tolyl)ethyl)-5-(piperidin-1-ylsulfonyl)indolin-2-one] | 42 ± 2.3 pmol/mg protein and 42 ± 2.3 ^a*^,b* pmol/mg protein | 1.6 ± 0.7 µmol/mg protein | 1258 ± 15 nmol/mg protein and 1258 ± 15 ^a* nmol/mg protein | 100 * % | 40 ± 2.2 µM | 27.05 ± 0.81 ^^ U/L | 36.78 ± 0.33 ^^ U/L | 0.82 ± 0.03 ^^ mg/dL | 0.16 ± 0.002 ^^ mg/dL | 0.65 ± 0.026 ^^ mg/dL | 51.25 ± 0.36 ^^ mg/dL | no differences in the hepatic or renal tissue structures | intact well-organized histological features of renal parenchyma | no inflammatory cell infiltrates | survived | No physical or abnormal changes were observed | – | –
2 | CC(=O)Nc1ccc(C(=O)C=C2C(=O)Nc3ccc(S(=O)(=O)N4CCCCC4)cc32)cc1 [Compound 4b, N-(4-(2-(2-oxo-5-(piperidin-1-ylsulfonyl)indolin-3-ylidene)acetyl)phenyl)acetamide] | 87.49 ± 3.4 ^a*^,b* pmol/mg protein | 1.1 ± 0.7 µmol/mg protein | 1916 ± 40 nmol/mg protein and 1916 ± 40 ^a*^,b* nmol/mg protein | 76.00 * % | 53 ± 3 µM | 27.95 ± 0.34 ^^ U/L | 35.18 ± 0.47 ^^ U/L | 0.88 ± 0.06 ^^ mg/dL | 0.17 ± 0.001 ^^ mg/dL | 0.70 ± 0.013 ^^ mg/dL | 62.60 ± 3.64 ^^ mg/dL | no differences in the hepatic or renal tissue structures | almost intact histological features of renal parenchyma | apparently intact hepatocytes | survived | No physical or abnormal changes were observed | – | –
3 | CC(=O)Nc1cccc(C(=O)C=C2C(=O)Nc3ccc(S(=O)(=O)N4CCCCC4)cc32)c1 [Compound 4c, N-(3-(2-(2-oxo-5-(piperidin-1-ylsulfonyl)indolin-3-ylidene)acetyl)phenyl)acetamide] | 54 ± 2.4 ^a*^,b* pmol/mg protein | 2.1 ± 0.3 ^b* µmol/mg protein | 1729 ± 38 nmol/mg protein and 1729 ± 38 ^a*^,b* nmol/mg protein | 75.60 * % | 35 ± 1.9 µM | 28.41 ± 0.28 ^^ U/L | 37.35 ± 1.47 ^^ U/L | 0.79 ± 0.04 ^^ mg/dL | 0.16 ± 0.007 ^^ mg/dL | 0.73 ± 0.014 ^^ mg/dL | 55.76 ± 5.64 ^^ mg/dL | no differences in the hepatic or renal tissue structures | almost intact well-organized morphological features | almost intact histological features of hepatic parenchyma | survived | No physical or abnormal changes were observed | – | –
4 | COc1cccc2c1C(=O)c1c(O)c3c(c(O)c1C2=O)C[C@@](O)(C(=O)CO)C[C@@H]3O[C@H]1C[C@H](N)[C@H](O)[C@H](C)O1 [Doxorubicin, reference compound] | 27.5 ± 1.7 ^a* pmol/mg protein | 0.8 ± 0.1 ^a* µmol/mg protein | – | 100% | 11.6 ± 0.9 µM | 52.97 ± 0.92 *^,# U/L | 46.93 ± 0.30 *^,# U/L | 1.57 ± 0.02 *^,# mg/dL | 0.36 ± 0.026 *^,# mg/dL | 1.45 ± 0.072 mg/dL | 83.27 ± 0.95 *^,# mg/dL | hepatic and renal pathology were obvious | dilatation of the cortical tubular segments | hepatocellular necrotic changes | – | – | 1244 ± 18 nmol/mg protein | 1244 ± 18 ^a* nmol/mg protein
